Results taken from patent US20090078651A1, “Mung Water Treatment Method” (ReNew Systems, Inc., priority 2007, published 2009).

Assays:
[1] = system: bacteria colonies from mung water; experiment: Most probable number plates of treated mung water samples (bacteria colony counts); assay type: cell-based; conditions: for colonies counted, Most Probable Number Plates: T = 24
Procedure: On 27 Sep. 2006 an experimental was conducted to compare the effects of treating mung water with DBNPA only to the effects of treating mung water with both DBNPA and Odor-Out®. The experiment was set-up in 250 ml baffled shake flasks with dispo plugs. The Odor Out® solutions used in this experiment were “aged”, having been prepared on 12 Sep. 2006 in tap water. The DBNPA solution was made up just prior to making additions to the flasks and was made using distilled water. After mung water samples and DBNPA and Odor Out® treatment additives were added, the flasks were placed in an incubation shaker set at 30 degrees C. and shaken at 100 rpm. The experiment was started at 2:30 p.m. on 27 Sep. 2006. The flasks were shaken for 2½ hours at which point the shaker was turned off and the flasks were allowed to incubate in a stationary position overnight. The next day, on 28 Sep. 2006 from 11 a.m.-2 p.m., serial dilutions were made up and most probable number plates were prepared. The plates were incubated overnight at 30 degrees C. On 29 Sep.

[2] = designed property; cited from earlier work

N#CC(Br)(Br)C(N)=O [DBNPA, 2.2-dibromo-3-nitrilopropionamide]
colonies counted, Most Probable Number Plates ([1]; Straight, DBNPA 0.05% 10 μl in 50 ml mung water, no Odor Out (1a)): TNC (the colonies on the plates were too numerous to count (>300))
colonies counted, Most Probable Number Plates ([1]; dilution 10^−1, DBNPA 0.05% 10 μl in 50 ml mung water, no Odor Out (1a)): TNC (the colonies on the plates were too numerous to count (>300))
colonies counted, Most Probable Number Plates ([1]; dilution 10^−2, DBNPA only (1a)): 5
colonies counted, Most Probable Number Plates ([1]; dilution 10^−3, DBNPA only (1a)): 1
colonies counted, Most Probable Number Plates ([1]; dilution 10^−4, DBNPA only (1a)): 0
colonies counted, Most Probable Number Plates ([1]; dilution 10^−5, DBNPA only (1a)): 0
colonies counted, Most Probable Number Plates ([1]; dilution 10^−6, DBNPA only (1a)): 0
colonies counted, Most Probable Number Plates ([1]; dilution 10^−7, DBNPA only (1a)): 0
bacteria colony counts, change ([1]; mung water samples treated only with DBNPA): moderate reductions
time to biodegrade after introduction into a recirculating water system [2]: ≤ 48 h
